Measurements taken from patent US20160227776A1, “COMPOSITION CONTAINING ATTRACTANT OF NOXIOUS ARTHROPOD COMPRISING PLANT-DERIVED COMPONENT AND ANALOGUE OF SAME” (KYOYU AGRI CO., LTD., priority 2013, published 2016).

Columns and labels:
Assay type in all cases: in vivo
[1] = tested on: Frankliniella occidentalis; test: Test Example 1: water trap attraction test, single compounds; parameters: key: (captured treated − captured untreated)×100/total released per cage; details: single compound, 30 adult females per cage, 24 hours
Protocol: (§1) Hexane solutions were prepared respectively containing single compounds selected from among p-anisaldehyde, benzaldehyde, ethyl nicotinate, geraniol, linalool, nerol, citronellol, methyl anthranilate, methyl benzoate, o-aminoacetophenone, o-anisidine, methyl m-aminobenzoate, methyl o-toluate and α-hexylcinnamaldehyde. Each single compound was prepared at five concentration levels consisting of 0.01 μg, 0.1 μg, 1 μg, 10 μg and 100 μg. After impregnating pieces of filter paper with these solutions, the filter paper was affixed on a plastic vial cap using adhesive tape and set up in a water trap containing a surfactant. After releasing 30 adult female Frankliniella occidentalis into an acrylic cage, the water trap containing the above-mentioned attractants was set up in the cage. 24 hours later, the number of Frankliniella occidentalis captured in the water trap was counted and the attraction rate was calculated using Equation 1.
(§2) Attraction rate=(No. of captured individuals in treatment−no. of captured individuals in untreatment)*100/(total no. released per cage) (1)

[2] = tested on: Frankliniella occidentalis; test: Test Example 2: water trap attraction test, mixtures of two compounds; parameters: key: % of released insects: (treated catch − untreated catch)×100/total released; details: single compound for comparison, 24 hours
Protocol: as §1, with “Mixed hexane” for “Hexane”, “two types of” for “single”, “Each single compound was prepared at five concentration levels consisting of 0.01 μg, 0.1 μg, 1 μg, 10 μg and 100 μg.” left out, “the mixed solution of the two types of compounds,” for “these solutions,”, “above-mentioned mixed” for “above-mentioned”, “1. In addition, hexane solutions were also prepared containing each of the single compounds at their respective prescribed concentrations for the sake of comparison, and those solutions were tested in the same manner.” for “1.”
as §2
(§3) In general, a synergistic attracting effect expected when mixing two given types of attractive compounds and using for treatment is determined from Colby's equation indicated with the following Equation 2: […]
(§4) X: attraction rate when treated with attractive compound A;
(§5) Y: attraction rate when treated with attractive compound B; and
(§6) E: attraction rate expected when treating by mixing attractive compound A and attractive compound B (expected attraction rate value).

[3] = tested on: Frankliniella occidentalis; test: Test Example 3: water trap attraction test, mixtures of three compounds; parameters: scale not given here; details: single compound for comparison, 24 hours
Protocol: Mixed hexane solutions were prepared containing three types of compounds selected from among p-anisaldehyde, benzaldehyde, ethyl nicotinate, geraniol, linalool, nerol, citronellol, methyl anthranilate, methyl benzoate, o-aminoacetophenone, o-anisidine, methyl m-aminobenzoate, methyl o-toluate and α-hexylcinnamaldehyde. […] After impregnating pieces of filter paper with the mixed solution of the three types of compounds, the filter paper was affixed on a plastic vial cap using adhesive tape and set up in a pan trap containing a surfactant. After releasing 30 adult female Frankliniella occidentalis into an acrylic cage, the water trap containing the above-mentioned mixed attractants was set up in the cage. 24 hours later, the number of Frankliniella occidentalis captured in the water trap was counted and the attraction rate was calculated using Equation 1. In addition, hexane solutions were also prepared containing each of the single agents at their respective prescribed concentrations for the sake of comparison, and those solutions were tested in the same manner.
In general, a synergistic attracting effect expected when mixing three given types of attractive compounds and using for treatment is determined from Colby's equation indicated with the following Equation 3: […]
as §4
(§7) Y: attraction rate when treated with attractive compound B;
Z: attraction rate when treated with attractive compound C; and
E: attraction rate expected when treating by mixing attractive compound A, attractive compound B and attractive compound C (expected attraction rate value).

Tetranychus urticae = test: Test Example 4: plastic tube filter paper contact test, mixtures of two compounds; parameters: key: (treated − untreated contacts) ×100 / repetitions, %; details: weight of each compound 1 μg; contact with filter paper within 10 minutes
Protocol: Mixed hexane solutions were prepared respectively containing two types of compounds selected from among p-anisaldehyde, benzaldehyde, ethyl nicotinate, geraniol, linalool, nerol, citronellol, methyl anthranilate, methyl benzoate, o-aminoacetophenone, o-anisidine, methyl m-aminobenzoate, methyl o-toluate and α-hexylcinnamaldehyde. The weight of each compound was adjusted to 1 μg. After impregnating pieces of filter paper (3 mm^2) with the mixed solution of the two types of compounds, the filter paper was set up at the head of a plastic tube (length of 9 cm, 5 mm^2 in diameters). An adult Tetranychus urticae was released into the end of plastic tube. Among 10 minutes, the number of T. urticae contacted the filter paper was counted and the attraction rate was calculated using Equation 1. In addition, hexane solutions were also prepared containing each of the single compounds at their respective prescribed concentrations for the sake of comparison, and those solutions were tested in the same manner.
Attraction rate=(No. of contacted individuals in treatment−no. of contacted individuals in untreatment)*100/(repetition) (1)
as §3, §4, §7, §6

Drosophila melanogaster = test: Test Example 5: water trap attraction test, mixtures of two compounds; parameters: key: % = (captured treated − captured untreated)×100/total released; details: weight of each compound 100 μg; 20 adults per cage; 24 hours
Protocol: Mixed hexane solutions were prepared respectively containing two types of compounds selected from among p-anisaldehyde, benzaldehyde, ethyl nicotinate, geraniol, linalool, nerol, citronellol, methyl anthranilate, methyl benzoate, o-aminoacetophenone, o-anisidine, methyl m-aminobenzoate, methyl o-toluate and α-hexylcinnamaldehyde. The weight of each compound was adjusted to 100 μg. After impregnating pieces of filter paper with the mixed solution of the two types of compounds, the filter paper was affixed on a plastic vial cap using adhesive tape and set up in a water trap containing a surfactant. After releasing 20 adult Drosophila melanogaster into an acrylic cage, the water trap containing the above-mentioned mixed attractants was set up in the cage. 24 hours later, the number of D. melanogaster captured in the water trap was counted and the attraction rate was calculated using Equation 1. In addition, hexane solutions were also prepared containing each of the single compounds at their respective prescribed concentrations for the sake of comparison, and those solutions were tested in the same manner.
as §2, §3, §4, §5, §6

Thrips tabaci = test: Test Example 6: yellow sticky trap attraction test, mixtures of two compounds; parameters: key: % = (captured treated − captured untreated)×100/total released per cup; details: weight of each compound 1 μg; 10 adults per cup; 24 hours
Protocol: Mixed hexane solutions were prepared respectively containing two types of compounds selected from among p-anisaldehyde, benzaldehyde, ethyl nicotinate, geraniol, linalool, nerol, citronellol, methyl anthranilate, methyl benzoate, o-aminoacetophenone, o-anisidine, methyl m-aminobenzoate, methyl o-toluate and α-hexylcinnamaldehyde. The weight of each compound was adjusted to 1 μg. After impregnating pieces of filter paper (3 mm^2) with the mixed solution of the two types of compounds, the filter paper was affixed on a yellow sticky trap (1 cm^2). After releasing 10 adult Thrips tabaci into a plastic cup (150 ml), the yellow sticky trap containing the above-mentioned mixed attractants was set up at the side of the plastic cup. 24 hours later, the number of T. tabaci captured in the yellow sticky trap was counted and the attraction rate was calculated using Equation 1. In addition, hexane solutions were also prepared containing each of the single compounds at their respective prescribed concentrations for the sake of comparison, and those solutions were tested in the same manner.
Attraction rate=(No. of captured individuals in treatment−no. of captured individuals in untreatment)*100/(total no. released per cup) (1)
as §3, §4, §7, §6

Compound	Attraction Rate ([1]; Amount 0.01 μg)	Attraction Rate ([1]; Amount 0.1 μg)	Attraction Rate ([1]; Amount 1 μg)	Attraction Rate ([1]; Amount 10 μg)	Attraction Rate ([1]; Amount 100 μg)	Attraction Rate ([2]; 1 μg)	Attraction Rate ([3]; 1 μg)	Attraction Rate (Tetranychus urticae)	Attraction Rate (Drosophila melanogaster)	Attraction Rate (Thrips tabaci)	Attraction Rate ([2]; 100 μg)	Attraction Rate ([3]; 100 μg)
C=CC(C)(O)CCC=C(C)C (stereo not drawn) [Linalool, linalool]	13	13	20	13	7	20	20	5	3	0		
COc1ccccc1N [o-anisidine]	6	10	20	30	40			15	8	0	40	40
CCOC(=O)c1cccnc1 [Ethyl nicotinate, ethyl nicotinate]	13	27	30	36	43			15	3	10	43	43
